Assay results reported in patent EP2305680A2, “Novel salts of (1S,4R)-cis-4-[2-amino-6-(cyclopropylamino)-9H-purin-9-yl]-2-cyclopentene-1-methanol” (AUROBINDO PHARMA LIMITED, priority 2009, dated 2011).
In brackets after ≈: the same amount, converted by molar mass. Read-outs that look alike come from different tables or passages of the source.

Assay: saturation solubility in various solvent systems
Format: physicochemical
Method: Solubility is the property of a solid, liquid, or gaseous chemical substance called solute to dissolve in a liquid solvent to form a homogeneous solution of the solute in the solvent. […] The saturation solubility of the compounds according to the present invention is measured in various solvent systems including simulated gastric fluid, pH 4.5 buffer, pH 6.8 buffer solution and pH 7.2 buffer solution. The compounds according to the present invention show better solubility as compared to abacavir sulphate in all solvent systems. Table- 1: Comparison of saturation solubility of Abacavir malonate with Abacavir sulphate (marketed salt)

[1] = solvent: pH 4.5 Sodium acetate buffer
[2] = solvent: pH 6.8 Phosphate buffer
[3] = solvent: pH 7.2 Phosphate buffer

Nc1nc(NC2CC2)c2ncn([C@H]3C=C[C@@H](CO)C3)c2n1 [Abacavir Malonate, (1S,4R)-4-[2-AMINO-(6-CYCLOPROPYLAMINO)-9H-PURIN-9-YL]-2-CYCLOPENTENE-1-METHANOL MALONATE]
Solubility (0.01n hcl, solvent: O.O1N HC1, read-out: Solubility): 733 mg/mL (≈ 2560 mM)
Solubility (0.1n hcl, simulated gastric fluid, thermodynamic from solid, solvent: O.1N HC1, read-out: Solubility): 368 mg/mL (≈ 1290 mM)
Solubility (solvent: Water): 116.2 mg/mL (≈ 406 mM)
Solubility [1]: 403.6 mg/mL (≈ 1410 mM)
Solubility [2]: 425.2 mg/mL (≈ 1480 mM)
Solubility [3]: 453.5 mg/mL (≈ 1580 mM)

Nc1nc(NC2CC2)c2ncn([C@H]3C=C[C@@H](CO)C3)c2n1 [Abacavir Sulphate, reference compound]
Solubility (0.1 N HCl, simulated gastric fluid, thermodynamic from solid, solvent: O.1N HC1, read-out: Solubility): 93.1 mg/mL
Solubility [1]: 112.6 mg/mL
Solubility [2]: 89.5 mg/mL
Solubility [3]: 124.0 mg/mL
Solubility (water, thermodynamic from solid, solvent: Water, read-out: Solubility): 89.2 mg/mL
